Data from patent publication US8436040B2, “Method of treating conditions involving PPAR-receptors with indole compounds” (Laboratoires Fournier S.A., priority 2005, dated 2013).

Tests used:
[1] = system: db/db mice; assay: db/db mouse model: serum glucose, triglyceride and cholesterol levels; assay type: in vivo; conditions: serum 4 hours after last gavage
Protocol: The test protocol is as follows:
Homozygous C57BL/Ks-db male mice (db/db mice), 11 to 13 weeks old at the start of the studies, are divided up into groups of 9-10 animals. The products are administered orally once a day for 5 days. One group of mice receives the vehicle only (0.5 or 1% methyl cellulose solution). A blood sample is taken from the retro-orbital sinus before treatment and 4 hours after the last gavage.
After centrifugation, the serum is collected and the cholesterol, triglyceride and glucose levels are measured using a multiparameter analyzer with commercial kits.
The results are expressed in % variation on the final day relative to the control group.

[2] = system: C2C12 cells; assay: β-oxidation of 1-C14 oleate on C2C12 cells differentiated in myotubes; assay type: cell-based, murine; conditions: 100 μM, 48 hours incubation
Protocol: A second series of tests was performed with the compounds according to the invention in order to confirm the activity deduced from their affinity for the aforementioned receptors. This test consists in measuring the β-oxidation on HuH7 cells of human hepatic origin and C2C12 cells of murine muscular origin after differentiation in myotubes.
The cells are inoculated into Petri dishes containing a central well. The products are added to the culture medium and incubated for 48 hours at different concentrations. After incubation for 22 hours, C14-radiolabeled oleate (1-C14 oleate) is added to the culture medium. The β-oxidation reaction is stopped 2 hours later by the addition of 40% perchloric acid.
The CO2 liberated during the oxidation of the oleate is trapped with KOH solution and then counted.
Each test is performed three times.
The results are expressed in % variation relative to the control dishes (dishes without compounds).

[3] = 30 mg/kg orally once a day for 5 days
[4] = 3 mg/kg orally once a day for 5 days
[5] = 100 mg/kg orally once a day for 5 days

Compound | Cholesterol, % variation on the final day relative to the control group [1, 3] | Glucose, % variation on the final day relative to the control group [1, 3] [%] | Triglycerides, % variation on the final day relative to the control group [1, 3] [%] | also measured
CC(OCc1cc2cc(Cl)ccc2n1S(=O)(=O)c1ccccc1)C(=O)O (stereo not shown) [Example 202, 2-[[5-Chloro-1-(phenylsulfonyl)-1H-indol-2-yl]methoxy]propanoic acid] | +25% | −52 | −48 | 
CN(CCOc1ccc(CC2SC(=O)NC2=O)cc1)c1ccccn1 (stereo not shown) [Rosiglitazone, rosiglitazone, reference compound] |  |  |  | Cholesterol, % variation on the final day relative to the control group [1, 4]: −30%; Glucose, % variation on the final day relative to the control group [1, 4]: −41%; Triglycerides, % variation on the final day relative to the control group [1, 4]: −52%
O=C(O)CCc1cc2cc(C(F)(F)F)ccc2n1S(=O)(=O)c1ccccc1 [Example 4, 1-(Phenylsulfonyl)-5-(trifluoromethyl)-1H-indole-2-propanoic acid] | +41% | −30 | −12 | β-oxidation, % variation relative to the control dishes [2]: 82%
O=C(O)CCc1cc2cc(Cl)ccc2n1S(=O)(=O)c1ccccc1 [Example 2, 5-Chloro-1-(phenylsulfonyl)-1H-indole-2-propanoic acid] | +30% | 0 | −7 | 
CC(C)OC(=O)C(C)(C)Oc1ccc(C(=O)c2ccc(Cl)cc2)cc1 [Fenofibrate] |  |  |  | Cholesterol, % variation on the final day relative to the control group [1, 5]: +32%; Glucose, % variation on the final day relative to the control group [1, 5]: −9%; Triglycerides, % variation on the final day relative to the control group [1, 5]: −7%
O=C(O)CCc1cc2cc(Cl)ccc2n1S(=O)(=O)c1ccc2ncsc2c1 [Example 155, 1-[(6-Benzothiazolyl)sulfonyl]-5-chloro-1H-indole-2-propanoic acid] | +38% | −35 | −41 | 
O=C(O)CCCc1cc2cc(Cl)ccc2n1S(=O)(=O)c1ccc2c(c1)OCO2 [Example 163, 1-[(1,3-Benzodioxol-5-yl)sulfonyl]-5-chloro-1H-indole-2-butanoic acid] | −15% | −38 | −35 | 
